Experimental findings from ChEMBL document CHEMBL1687838, “The in vitro contribution of autolysins to bacterial killing elicited by amoxicillin increases with inoculum size in Enterococcus faecalis” (2011) are described below.

Values after ≈ are worked out from the molar mass of the structure shown. Active and inactive are the calls of the source. The rule behind the calls is not given here.

The test system of assay [1] is Enterococcus faecalis. Briefly: Bactericidal activity against 5 X 10^8 CFU/ml Enterococcus faecalis JH2-2 at 2 ug/ml after 3 hrs by time kill analysis. The format is functional.
Assay [2] has as its system Enterococcus faecalis. Nature of the assay: Bactericidal activity against 5 X 10^8 CFU/ml Enterococcus faecalis JH2-2 harboring deletion at AltA, AltB and AltC gene at 2 ug/ml after 3 hrs by time kill analysis. The format is functional.
For assay [3], the system named is Enterococcus faecalis. Briefly: Bactericidal activity against 5 X 10^6 CFU/ml Enterococcus faecalis JH2-2 at 2 ug/ml after 3 hrs by time kill analysis. It is filed as functional.
In assay [4] the test system is Enterococcus faecalis. Nature of the assay: Antibacterial activity against Enterococcus faecalis JH2-2 harboring deletion at AltA, AltB and AltC gene by CLSI method. It is filed as functional.
The subject of assay [5] is Enterococcus faecalis. Briefly: Bactericidal activity against 5 X 10^6 CFU/ml Enterococcus faecalis JH2-2 harboring deletion at AltA, AltB and AltC gene at 2 ug/ml after 6 hrs by time kill analysis. The format is functional.
Assay [6] has as its system Enterococcus faecalis. Nature of the assay: Bactericidal activity against 5 X 10^8 CFU/ml Enterococcus faecalis JH2-2 harboring deletion at AltA, AltB and AltC gene at 2 ug/ml after 24 hrs by time kill analysis. It is filed as functional.
Assay [7] has as its system Enterococcus faecalis. Nature of the assay: Bactericidal activity against 5 X 10^8 CFU/ml Enterococcus faecalis JH2-2 harboring deletion at AltA, AltB and AltC gene at 2 ug/ml after 6 hrs by time kill analysis. It is filed as functional.
Assay [8] concerns Enterococcus faecalis. Briefly: Bactericidal activity against 5 X 10^6 CFU/ml Enterococcus faecalis JH2-2 harboring deletion at AltA, AltB and AltC gene at 2 ug/ml after 3 hrs by time kill analysis. The format is functional.
Assay [9] relates to Enterococcus faecalis. Nature of the assay: Bactericidal activity against 5 X 10^8 CFU/ml Enterococcus faecalis JH2-2 at 2 ug/ml after 24 hrs by time kill analysis. The format is functional.
For assay [10], the system named is Enterococcus faecalis. Briefly: Bactericidal activity against 5 X 10^6 CFU/ml Enterococcus faecalis JH2-2 at 2 ug/ml after 24 hrs by time kill analysis. The format is functional.
Assay [11] has as its system Enterococcus faecalis. Nature of the assay: Antibacterial activity against Enterococcus faecalis JH2-2 by CLSI method. It is filed as functional.
Assay [12] has as its system Enterococcus faecalis. Nature of the assay: Antibacterial activity against Enterococcus faecalis JH2-2 assessed as induction of membrane permeabilization at 2 ug/ml after 3 hrs by propidium iodide and Syto9 staining based confocal microscopic analysis. It is filed as functional, organism-based.
Assay [13] relates to Enterococcus faecalis. Briefly: Bactericidal activity against 5 X 10^8 CFU/ml Enterococcus faecalis JH2-2 at 2 ug/ml after 6 hrs by time kill analysis. It is filed as functional.
Assay [14] deals with Enterococcus faecalis. Nature of the assay: Antibacterial activity against Enterococcus faecalis JH2-2 harboring deletion at AltA, AltB and AltC gene assessed as induction of membrane permeabilization at 2 ug/ml after 3 hrs by propidium iodide and Syto9 staining based confocal microscopic analysis. The format is functional, organism-based.
Assay [15] concerns Enterococcus faecalis. Nature of the assay: Bactericidal activity against 5 X 10^6 CFU/ml Enterococcus faecalis JH2-2 at 2 ug/ml after 6 hrs by time kill analysis. The format is functional.
Assay [16] deals with Enterococcus faecalis. Briefly: Bactericidal activity against 5 X 10^8 CFU/ml Enterococcus faecalis JH2-2 harboring deletion at AltA, AltB and AltC gene infected in rabbit assessed as bacterial load per gram of vegetation at 50 mg/kg, im administered three times a day starting 48 hrs post-infection measured after 24 hrs by time kill analysis (reference value: 8.69+- 1.19 log10 CFU/g). To be noted: route intramuscular. The format is functional.

In assay [17] the test system is Enterococcus faecalis. Briefly: Bactericidal activity against 5 X 10^8 CFU/ml Enterococcus faecalis JH2-2 infected in rabbit assessed as bacterial load per gram of vegetation at 50 mg/kg, im administered three times a day starting 48 hrs post-infection measured after 24 hrs by time kill analysis (reference value: 9.29+- 0.83 log10 CFU/g). It is filed as functional. To be noted: route intramuscular.

For assay [18], the system named is Enterococcus faecalis. Briefly: Bactericidal activity against 5 X 10^6 CFU/ml Enterococcus faecalis JH2-2 harboring deletion at AltA, AltB and AltC gene at 2 ug/ml after 24 hrs by time kill analysis. It is filed as functional.

On to `CC1(C)S[C@@H]2[C@H](NC(=O)[C@H](N)c3ccc(O)cc3)C(=O)N2[C@H]1C(=O)O` [AMOXICILLIN], for which the log10CFU/ml with Enterococcus faecalis [1] is 1.73; in the assay on Enterococcus faecalis [2], 2.83; in the assay with Enterococcus faecalis [3], 2.07; in the assay on Enterococcus faecalis [5], 1.45; in the assay with Enterococcus faecalis [6], 2.46; with Enterococcus faecalis [7] it was 0.79. Moreover, the log10CFU/ml in the assay with Enterococcus faecalis [8] is on record as 3.15; with Enterococcus faecalis [9] it was 1.1; in the assay with Enterococcus faecalis [10], 2.48; in the assay on Enterococcus faecalis [13], 4.59; in the assay on Enterococcus faecalis [15] it was 4.86; in the assay on Enterococcus faecalis [18], 4.44. Moreover, the minimal inhibitory concentration (MIC) against Enterococcus faecalis [4] and in the assay with Enterococcus faecalis [11] was 0.5 µg/mL (≈ 1.37 µM) in each case. Moreover, the result in the assay on Enterococcus faecalis [12] and in the assay on Enterococcus faecalis [14] was Active. For the same compound, the values for the log10CFU/g with Enterococcus faecalis [16] and with Enterococcus faecalis [17] were 7.5 and 7.69, respectively.
